As usually defined, the solubility is the dissolved amount per volume that the medium holds. Lower therefore signals a poorly soluble substance. In general, Cmax refers to the maximum level reached in the sampled fluid or tissue.

SMILES strings stand for the structures. ≈ marks a conversion by molar mass, not a printed value.

The source of these data is US8974823B2, “Solid compositions of low-solubility drugs and poloxamers” (Bend Research, Inc., priority 2003, dated 2015).

Series [1] is described as follows: aqueous solubility of the drug. Particulars: aqueous solution.
The conditions of series [2]: drugs of prior-art compositions, background section; cited from earlier work.
The nature of series [3]: in vivo test of oral powder for constitution in fasted male beagle dogs (plasma Drug 4). The conditions noted are these: dog, oral gavage OPC. Here is the method: The composition of Example 16 was used as oral powders for constitution (OPC) for evaluating the performance of the compositions in in vivo tests using male beagle dogs. The OPC was dosed as a suspension in a solution containing 0.5 wt % […] METHOCEL® (from Dow Chemical Co.), and was prepared as follows. First, 7.5 g of METHOCEL® was weighed out and added slowly to approximately 490 mL of water at 90-100° C. to form a METHOCEL® suspension. After all the METHOCELS® was added, 1000 mL of cool/room temperature water was added to the suspension, which was then placed in an ice water bath. When all of the METHOCEL® had dissolved, 2.55 g of polyoxyethylene 20 sorbitan monooleate (TWEEN 80) were added and the mixture stirred until the TWEEN 80 had dissolved, thus forming a stock suspension solution.
To form the OPC, sufficient quantity of the test composition to result in a 90 mgA amount of Drug 4 was weighed and placed into a mortar. (“mgA” refers to mg of active drug.) A 20 mL quantity of the stock suspension solution was added to the mortar and the test composition was mixed with a pestle. […]
Six male beagle dogs were each dosed with the OPC. […] Whole blood samples were taken from the jugular vein and analyzed for the concentration of Drug 4 using the following procedure. […]

In series [1], `Cc1c(O)cccc1C(=O)N[C@@H](CSc1ccccc1)[C@H](O)CN1C[C@H]2CCCC[C@H]2C[C@H]1C(=O)NC(C)(C)C` [Drug 3, N-(1,1-dimethylethyl) decahydro-2-[(2R,3R)-2-hydroxy-3-[(3-hydroxy-2-methylbenzoyl)amino]-4-(phenylthio)butyl]-3-isoquinolinecarboxamide (3s, 4aS, 8aS)-monomethanesulfonate] showed a solubility of roughly 6 µg/mL (≈ 10.6 µM).

For `COc1ccccc1OCCNCC(O)COc1cccc2[nH]c3ccccc3c12` (stereo not shown) [carvedilol], in series [2], the “glass transition temperature (Tg)” value is “about 39 °C”.

As to `CCOC(=O)N1c2ccc(C(F)(F)F)cc2[C@@H](N(Cc2cc(C(F)(F)F)cc(C(F)(F)F)c2)C(=O)OC)C[C@H]1CC` [Control C7, Torcetrapib], the Cmax in series [3] (90 mgA Drug 4) was less than 100 ng/mL. Moreover, in series [3] (90 mgA Drug 4, read-out: AUC(0–24)), the AUC(0-t) was less than 200 ng·h/mL.
